Laboratory results as given in patent US10647665B2, “Biaryl urea derivative or salt thereof and preparation process and use for the same” (Fudan University, priority 2016, dated 2020).
pIC50: −log10 of the molar value.

Experiments:
[1] = test system: Mouse Th17 cell differentiation; test: Inhibition of mouse Th17 cell differentiation (IL-17 by intracellular staining and flow cytometry); type: cell-based; details: compound at 0.3 μM, mouse spleen CD4+ T cells, 96 hours
Description: Experimental method: Mouse spleen CD4^+ T cells were isolated and differentiated into Th17 cells. CD4^+ T cells were cultured in the environment of anti-CD3 (0.25 μg/mL), anti-CD28 (1 μg/mL), anti-IL4 (2 μg/mL), anti-IFN-γ (2 μg/mL), TGF-β (5 ng/mL), and IL6 (20 ng/mL), and then the test compound was added. After 96 hours, the differentiation efficiency of Th17 was analyzed. Before collection of cells, PMA at 50 ng/mL and ionomycin at 500 ng/mL were added for stimulation for 4 hours, and the ratio of IL-17 was detected by intracellular staining and flow cytometry. At the same time, we used Live/Dead Cell Dye (Invitrogen) staining method to analyze the cell survival rate, to judge whether the drug had toxicity to cells, and determine the inhibition rate of the compound at a concentration of 0.3 μM on IL-17 differentiation by Th 17 cells.

[2] = target: RORγ receptor (B-RORγ LBD) (Homo sapiens (Human), UniProt P51449); test: Inhibitory activity on RORγ receptor in vitro by fluorescence resonance energy transfer (FRET); type: biochemical; details: average of at least two independent tests
Description: The inhibitory activity of compounds on RORγ receptor was determined by fluorescence resonance energy transfer (FRET) experiments. The inhibitory activity was expressed by half-inhibitory concentration (IC50).
1. Preparation of RORγ Buffer Solution
10 mL of DTT and 100 mL buffer solution were gently mixed together and ready to use.
2. Preparation of Compound Solution
(§1) 3. Preparation of Protein Mixture a. 40 nM B-RORγ LBD solution and 20 nM SA-APC solution were gently mixed together. The reaction mixture was incubated for 15 minutes at room temperature. Then 400 nM Biotin was added to the described above mixture. After gently mixed together, the resulting mixture was incubated for 10 minutes at room temperature. […]
as §1, with “b.” for “3. Preparation of Protein Mixture a.”, “Bioin-SRC1” for “B-RORγ LBD”, “10” for “20”, “SA-eu” for “SA-APC”, “together, and the” for “together. The”, “200” for “400”
d. A mixture of 0.1 μM alternative agonist
N-(2-chloro-6-fluorophenyl)-N-((20-methoxy-[1,10-biphenylyl]-4-substituted)methyl)benzenesulfonamide, 25 μL B-RORγ LBD/SA-APC and Bioin-SRC1/SA-eu mixture solution with test compound were added to one of the well of a 384-well plate, then they were centrifuged for 1 minute at 1000 rpm, and incubated at room temperature for 1 hour. The values were read on the Envision microplate detector and IC50 was calculated.

Chain of RORγ receptor (B-RORγ LBD) (P51449 269-508): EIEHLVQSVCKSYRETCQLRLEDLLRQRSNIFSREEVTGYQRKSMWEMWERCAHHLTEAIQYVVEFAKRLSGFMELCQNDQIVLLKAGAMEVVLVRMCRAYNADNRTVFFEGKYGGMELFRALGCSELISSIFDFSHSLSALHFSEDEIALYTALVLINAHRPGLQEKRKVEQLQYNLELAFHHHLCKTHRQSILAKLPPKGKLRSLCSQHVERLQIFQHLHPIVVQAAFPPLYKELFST

Row | pIC50 [2] | Compound | inhibition at 0.3 µM [1] [%]
1 | > 6.30 | CS(=O)(=O)c1ccc(CNC(=O)Nc2cc(Cl)c(-c3ccccc3OC(F)(F)F)c(Cl)c2)cc1 [Example 1-4, 1-(2,6-dichloro-2′-(trifluoromethoxy)-[1,1′-biphenyl]-4-yl)-3-(4-(methylsulfonyl)benzyl)urea] | 40 to 70
2 | > 6.30 | CNS(=O)(=O)c1ccc(CNC(=O)Nc2cc(Cl)c(-c3ccccc3OC(F)(F)F)c(Cl)c2)cc1 [Example 1-5, 4-((3-(2,6-dichloro-2′-(trifluoromethoxy)-[1,1′-biphenyl]-4-yl)ureido)methyl)-N-methylbenzenesulfonamide] | 70 to 100
3 | > 6.30 | CC(=O)NS(=O)(=O)c1ccc(CNC(=O)Nc2cc(Cl)c(-c3ccccc3OC(F)(F)F)c(Cl)c2)cc1 [Example 1-7, N-((4-((3-(2,6-dichloro-2′-(trifluoromethoxy)-[1,1′-biphen-1,1′-biphenyl]-4-yl)ureido)methyl)phenyl)sulfonyl)acetamide] | 0 to 40

Row | Compound | pIC50 [2] | inhibition at 0.3 µM [1] [%]
4 | Cn1cc(-c2cc(NC(=O)NCc3ccc(CC(=O)O)cc3)ccc2-c2ccccc2OC(F)(F)F)cn1 [Example 1-22a, 2-(4-((3-(2-(1-methyl-1H-pyrazol-4-yl)-2′-(trifluoromethoxy)-[1,1′-biphenyl]-4-yl)ureido)methyl)phenyl)acetic acid] | 5.30 to 6.30 | 0 to 40
